Measurements from PubChem BioAssay (NCI).
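Growth conditions: 96-well plates. Treatment: test compound, 48 hours, 5 concentrations. Analysis: linear interpolation between bracketing concentrations; unreached endpoints set to highest concentration. Definition used: TGI = concentration required for complete inhibition of growth.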

Tests used:
Test in all cases: NCI tumour cell line growth inhibition, 48 h
ACHN renal = test system: ACHN renal
CCRF-CEM leukemia = test system: CCRF-CEM leukemia
HOP-62 NSCLC = test system: HOP-62 NSCLC
KM12 colon = test system: KM12 colon
OVCAR-5 ovarian = test system: OVCAR-5 ovarian
SF-295 CNS = test system: SF-295 CNS
SNB-19 CNS = test system: SNB-19 CNS
UO-31 renal = test system: UO-31 renal
DU-145 prostate = test system: DU-145 prostate
MALME-3M melanoma = test system: MALME-3M melanoma

| SMILES | TGI (ACHN renal) [µM] | TGI (CCRF-CEM leukemia) [µM] | TGI (HOP-62 NSCLC) [µM] | TGI (KM12 colon) [µM] | TGI (OVCAR-5 ovarian) [µM] | TGI (SF-295 CNS) [µM] | TGI (SNB-19 CNS) [µM] | TGI (UO-31 renal) [µM] | TGI (DU-145 prostate) [µM] | TGI (MALME-3M melanoma) [µM] |
| --- | --- | --- | --- | --- | --- | --- | --- | --- | --- | --- |
| CN(C)CCNC(=O)Cc1ccccc1Nc1c(Cl)cccc1Cl | 33.3 | 34 | 28.5 | 35.7 | 24.2 | 30.1 | 31.9 | 25.6 | – | – |
| CN1CCN(Cc2cc3c(nn2)-c2ccccc2C3=O)CC1 | 62.4 | > 100 | – | > 100 | > 100 | > 100 | > 100 | > 100 | > 100 | 39.2 |
| N#CC(c1ccccc1)N(CCOCCOCCN(C(=O)c1ccccc1)C(C#N)c1ccccc1)C(=O)c1ccccc1 (stereo not given) | > 100 | > 100 | – | > 100 | > 100 | > 100 | > 100 | > 100 | > 100 | > 100 |
| O[C@H]1[C@H](O)[C@@H](O)CN2CC[C@H](O)[C@H]12 | – | > 100 | > 100 | > 100 | > 100 | > 100 | > 100 | > 100 | – | > 100 |
| [N-]=[N+]=CC(=O)OC(CCl)CCl | > 100 | – | > 100 | > 100 | > 100 | > 100 | > 100 | > 100 | > 100 | > 100 |
| O=C(NN1C(=O)CS(=O)(=O)C1c1ccc(C(F)(F)F)cc1)c1ccncc1 (stereo not given) | > 100 | > 100 | > 100 | > 100 | > 100 | > 100 | > 100 | – | – | > 100 |
| Clc1ccc(C=NC23CC4CC(CC(C4)C2)C3)c(Cl)c1 | > 10 | > 10 | > 10 | > 10 | > 10 | > 10 | > 10 | – | > 10 | > 10 |
| Cc1ccnc(NC(=S)Nc2ccc([N+](=O)[O-])cc2)c1 | > 100 | > 100 | > 100 | > 100 | – | > 100 | > 100 | > 100 | > 100 | – |
| CC(C(=O)COCc1ccccc1)P1(=O)OC(C)(C)CN1C(C)(C)C (stereo not given) | > 100 | > 100 | > 100 | > 100 | > 100 | > 100 | – | > 100 | > 100 | – |
| CC1=C(C#N)c2nc3ccccc3n2C(=O)C1(C)CCO (stereo not given) | > 100 | > 100 | > 100 | – | > 100 | > 100 | > 100 | > 100 | > 100 | > 100 |
| CC(C)C1=CC23CCC4C(C)(C(=O)O)CCCC4(C)C2CC1C1C(=O)N(CCCCCCN2C(=O)C4C5CC6C7(C)CCCC(C)(C(=O)O)C7CCC6(C=C5C(C)C)C4C2=O)C(=O)C13 (stereo not given) | 22.8 | 37.7 | – | 23.9 | 37.4 | – | 34.8 | – | – | 31.2 |
| CSc1csc(-c2ccc(-c3ccc(-c4cc(SC)cs4)s3)s2)c1 | > 100 | > 100 | > 100 | > 100 | > 100 | > 100 | > 100 | > 100 | – | > 100 |
